In patent publication US8809324B2, “Substituted phenyl-oxathiazine derivatives, method for producing them, drugs containing said compounds and the use thereof” (Sanofi, priority 2011, dated 2014):

Biological target: human 11β-HSD1 microsome fraction (Homo sapiens, UniProt P28845)
Assay: Enzymatic 11Beta-HSD1 test (SPA-based detection)
Assay type: biochemical
Settings: human 11β-HSD1 microsomes, [1,2-3H]-cortisone, NADPH, 37° C. 1 hour
Description: Enzymatic 11Beta-HSD1 Test:
To measure the activity of the compounds, an SPA-based detection method (Solly et al. 2005) was employed. First of all, 20 μl of the human 11β-HSD1 microsome fraction (0.2 μg of protein), prepared in 50 mM HEPES, 0.1% BSA (w/v), were applied to a plate with 384 wells. The test compounds (0.09 μl) were applied to the assay plate in 100% DMSO. The reaction was started by addition of 20 μl of [1,2-^3H]-cortisone (0.1 μCi/[…]) in assay buffer comprising 25 mM HEPES, 100 mM KCl, 5 mM NaCl, 2 mM MgCl2 and 0.25 mM NADPH. The plate was agitated at 37° C. for 1 hour. At the same time, a stop solution comprising 20 mg/ml SPA-PVT beads, 1.6 mg/ml monoclonal cortisol antibody and 0.01 mM SSR110887 (inhibitor from the Biovitrium patent) in 50 mM HEPES, 1 M NaCl and 1 M KCl was stirred at room temperature. To stop the reaction, 25 μl of the stop solution were added to each well. The plate was agitated gently at room temperature for 1 further hour and then centrifuged at 500 gav for 1 minute, in order that the SPA beads could settle out. The plate was then read in a Wallac-1450-Microbeta unit with a standard SPA program (counting time 1 min/well). The comparative compound was glycyrrhetinic acid.
Protein and radioactive substrate were dispensed with a Biomek FX unit (Beckman Coulter) for handling liquids. The test compounds were added with a Cybi-Well equipped with a 90 nl pin tool (CyBio).
Lit.: Solly S, Mundt S S, Zokian H J, Juy-Fang Ding G, Hermanowski-Vosatka A, Strulovici B and Zheng W. High-throughput screening of 11β-Hydroxysteroid dehydrogenase type 1 in scintillation proximity format. Assay Drug Dev Technol 2005; 3:377-384.

human 11β-HSD1 microsome fraction, sequence (P28845 whole entry): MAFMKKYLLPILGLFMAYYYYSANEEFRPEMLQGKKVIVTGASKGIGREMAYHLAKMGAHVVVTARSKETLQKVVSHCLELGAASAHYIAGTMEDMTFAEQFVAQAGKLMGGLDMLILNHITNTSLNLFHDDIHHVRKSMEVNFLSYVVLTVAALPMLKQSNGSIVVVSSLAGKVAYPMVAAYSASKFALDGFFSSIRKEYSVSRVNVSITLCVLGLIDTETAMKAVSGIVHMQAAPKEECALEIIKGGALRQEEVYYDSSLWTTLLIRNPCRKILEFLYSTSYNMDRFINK

Structure (SMILES)	IC50 [nM]
CC1(C)OC(NC23CC4CC(CC2C4)C3)=NS(=O)(=O)[C@H]1c1ccc(C2CCN(CCC(F)(F)F)CC2)cc1 [Example 2, ((S)-6,6-Dimethyl-4,4-dioxo-5-{4-[1-(3,3,3-trifluoropropyl)-piperidin-4-yl]phenyl}-5,6-dihydro-4H-4lambda6-[1,4,3]oxathiazin-2-yl)-(hexahydro-2,5-methanopentalen-3a-yl)amine]	24
CC1(C)OC(NC23CC4CC2CC(C(N)=O)(C4)C3)=NS(=O)(=O)[C@@H]1c1ccc(Br)cc1 (stereo partly drawn) [Example 3, 3a-[(R)-5-(4-Bromophenyl)-6,6-dimethyl-4,4-dioxo-5,6-dihydro-4H-4lambda6-[1,4,3]oxathiazin-2-ylamino]hexahydro-2,5-methanopentalene-2-carboxamide]	22
CC1(C)OC(NC23CC4CC2CC(C(N)=O)(C4)C3)=NS(=O)(=O)[C@@H]1c1ccc(-c2ccccc2)cc1 (stereo partly drawn) [Example 4, 3a-((R)-5-Biphenyl-4-yl-6,6-dimethyl-4,4-dioxo-5,6-dihydro-4H-4lambda6-[1,4,3]oxathiazin-2-ylamino)hexahydro-2,5-methane-pentalene-2-carboxamide]	34
CC1(C)OC(NC23CC4CC(CC2C4)C3)=NS(=O)(=O)[C@H]1c1ccc(-c2cccc(C(=O)O)c2)cc1 [Example 1, 4′-[(S)-2-(Hexahydro-2,5-methanopentalen-3a-ylamino)-6,6-dimethyl-4,4-dioxo-5,6-dihydro-4H-4lambda6-[1,4,3]oxathiazin-5-yl]-biphenyl-3-carboxylic acid]	14
